The assay has as its system HFD/L-NAME mice. Put plainly: HFD/L-NAME HFpEF mouse model, TYA-11018 versus Empagliflozin for 9 weeks. It counts as in vivo. Particulars: TYA-11018 15 mg/kg, Empagliflozin 10 mg/kg. As for the experimental part: After HFpEF phenotypes were established, mice received 15 mg/kg TYA-11018 or 10 mg/kg Empagliflozin, or vehicle orally once daily for 9 weeks. Health monitoring was performed weekly with body weights recorded. Glucose tolerance test was performed after 1st dose. Cardiac function was recorded by echocardiography after treatment for 9 weeks. End diastolic pressure (EDP) was measured by PV-Loop at terminal at 9 weeks after dosing.
Animals: Cohort of mice with established HFpEF phenotypes and age/sex matched wild type controls were used for dosing study. […] After acclimation for 1 week, one group of mice was fed with high fat diet containing 0.07% L-NAME (LabDiet 5G5V, St Louis, MO) for 15 weeks. The control group of mice were fed with normal chow (LabDiet 5053, St Louis, MO). […] Animals were housed in an animal research facility in accordance with the National Research Council of the National Academies guidelines for the care and use of laboratory animals.
A second group of mice was fed with standard chow for controls.
Transthoracic echocardiography was performed using a VisualSonics Vevo 2100 system equipped with MS400 transducer (Visual Sonics, Toronto, ON). LVEF and other indices of systolic function were obtained from short-axis M-mode scans at the midventricular level, as indicated by the presence of papillary muscles, in conscious, gently restrained mice. […]
Intraperitoneal glucose-tolerance tests were performed by injection of glucose (2 g/kg in saline) after 6 hour fasting (from 7 a.m. to 1 p.m.). Tail blood glucose levels (mg/dL) were measured by AimStrip Plus blood glucose strips used with the AimStrip Plus blood glucose monitoring system (Germaine Laboratories, San Antonio, TX) at 0 (baseline, before glucose dose), 15, 30, 45, 60 and 120 minutes after glucose administration.
The trachea was exposed by a midline incision from the base of the throat to just above the clavicle. […] The hemodynamic parameters were then recorded in close-chest mode. […]

With `OC[C@H]1O[C@@H](c2ccc(Cl)c(Cc3ccc(O[C@H]4CCOC4)cc3)c2)[C@H](O)[C@@H](O)[C@@H]1O` [Empagliflozin, empagliflozin], the E/A ratio entry was “decreased”, the “E/e′ ratio” value is listed as “decreased” and the end diastolic pressure result is on record as “reduced end diastolic pressure”.

(Values after US20230381148A1, “HDAC6 INHIBITORS FOR TREATMENT OF METABOLIC DISEASE AND HFPEF” (Tenaya Therapeutics, Inc., priority 2021, published 2023).)
